Measured values as given in US20090227540A1, “TREATMENT OF WOOD BASED ON NOVEL FORMULATIONS OF BORATRANES” (priority 2005, published 2009).
Like-named read-outs stand apart in the source and are kept apart here.

What was measured:
G. abietinum = conditions: Humphrey et al; cited from earlier work
P. tephropora = conditions: Humphrey et al; cited from earlier work
Coniophora puteana = experiment: decay of treated, leached radiata pine blocks (AWPA protocol); format: cell-based
Description: (§1) A more rigorous examination of the potential synergism of was carried out on leached wood blocks. Radiata pine blocks were cut to size (20×20×20 mm) and labeled according to treatment level. The blocks were then vacuum impregnated at
(§2) −95 kpa with the various treatments as specified in table 16. The aqueous or alcoholic carrier solvents were then allowed to air dry for a period of 5 days. The blocks were then subjected to leaching and biological attack in accordance with the AWPA's “Proctocols for assessment of Wood Preservatives.” The fungal species used were Tyromyces palustris, Coniophora puteana and Fomitopsis lilacino-gilva.
(§3) inhibition of growth by fungicide B at retention q. E is the expected additive inhibition of the two fungicides. If a greater inhibition occurs with the combined treatment than the two fungicides acting alone synergism is defined to be present.

Tyromyces palustris [1] = experiment: as above; format: cell-based
Description: as §1, §2, §3

[2] = test system: Fomitopsis lilacino-gilva; experiment: as above; format: cell-based
Description: as §1, §2, §3

Antroda xantha = experiment: malt agar plate growth inhibition, end point/MIC and Kull synergy; format: cell-based
Description: (§4) To this end an alcoholic aqueous solutions of decyl boratrane and didecyldimethyl ammonium chloride were prepared separately and in combination in a ratio of 3:1 Serial dilutions of the formulations of the respective fungicides and fungicide mixture were added to 3 replicate plates of malt agar under aseptic conditions. Three replicate control plates without fungicide were similarly prepared.
(§5) Onto each plate was placed 6 fungal inoculum squares measuring approximately 5×5 mm. […] The plates were then rated for growth inhibition and the results recorded.
(§6) The absence or presence of synergism may be calculated by the method of F. C. Kull et al., Applied Microbiology, Vol 9, (1961) p 538 et seq. The synergistic index (S.I.) is calculated according to the following formula.
(§7) In the present context the parameters in the formula have the following meaning:
(§8) Qa=The concentration of compound decyl isopropanolamine boratrane (compound A) in mixture which produces and end point. Qb=The concentration of compound didecyldimethyl ammonium chloride (compound B) in mixture which produces and end point. QA=The concentration of compound decyl isopropanolamine boratrane (compound A) alone which produces and end point. QB=The concentration of compound didecyldimethyl ammonium chloride (compound B) alone which produces and end point. QC=The concentration of the mixture of didecyldimethyl ammonium chloride and decyl isopropanolamine boratrane (compounds A+B) which together produces and end point.
(§9) If the synergistic index is above 1, this means that antagonism is present. If the synergistic index equals 1, this means that an additive effect of the two biocides exist. If the synergistic index is less than 1, this means that synergism of the two biocides exist.
(§10) To this end an alcoholic aqueous solution of decyl boratrane and didecyldimethyl ammonium chloride was formulated in a ratio of 3:1. In a separate formulation a micro-emulsion of triadimefon was prepared. Serial dilutions of the formulations of the respective fungicides were added to 3 replicate plates of malt agar under aseptic conditions and tested for synergism under the same conditions as example 7 at ratios of 10:1 and 20:1 boratrane didecyldimethyl ammonium chloride mixture to 1 of triadimefon.
(§11) The synergy experiment in Example 8 was repeated at two additional ratios of 5:1 and 50:1. The results are sumarised in tables 14 and 15.

Pycnoporus coccineus = experiment: as above; format: cell-based
Description: as §4, §5, §6, §7, §8, §9, §10, §11

Tyromyces palustris [3] = experiment: as above; format: cell-based
Description: as §4, §5, §6, §7, §8, §9, §10, §11

Trametes versicolor = experiment: as above; format: cell-based
Description: as §4, §5, §6, §7, §8, §9, §10, §11

[4] = test system: Fomitopsis lilacino-gilva; experiment: as above; format: cell-based
Description: as §4, §5, §6, §7, §8, §9, §10, §11

[5] = cited from earlier work
[6] = Ex 7, Table 5 prints no unit (ppm in Tables 1-4)
[7] = Ex 8, A=DIPB DDAC 3:1, B=triadimefon
[8] = Ex 9 repeat, A=DIPB DDAC 3:1, B=triadimefon

CCCC[N+](CCCC)(CCCC)CCCC.c1ccc2c(c1)CO[B-]1(OCc3ccccc3O1)O2
inhibition of the fungi (G. abietinum): complete inhibition
inhibition of the fungi (P. tephropora): complete inhibition

OB(O)O [Boric acid]
Mass loss % (Coniophora puteana; retention Boric acid 0.4% w): 47.37%
Mass loss % (Coniophora puteana; retention Boric acid 0.8% w): 43.4%
Mass loss % (Tyromyces palustris [1]; retention Boric acid 0.4% w): 23.66%
Mass loss % (Tyromyces palustris [1]; retention Boric acid 0.8% w): 24.67%
Mass loss % ([2]; retention Boric acid 0.4% w): 32.91%
Mass loss % ([2]; retention Boric acid 0.8% w): 30.6%

CCCCCCCCCC[N+](C)(C)CCCCCCCCCC.[Cl-] [DDAC, didecyldimethyl ammonium chloride]
MIC (Antroda xantha): 256 µg/mL
QB end point concentration, B alone (Antroda xantha; Ex 7, A=DIPB, B=DDAC): 256
QB end point concentration, B alone (Pycnoporus coccineus; Ex 7, A=DIPB, B=DDAC): 2048
MIC (Pycnoporus coccineus; [6]): 2048
MIC (Tyromyces palustris [3]): 1020 µg/mL
QB end point concentration, B alone (Tyromyces palustris [3]; Ex 7, A=DIPB, B=DDAC): 1024
QB end point concentration, B alone (Trametes versicolor; Ex 7, A=DIPB, B=DDAC): 2048
MIC (Trametes versicolor; Trametes versicolor): > 1020 µg/mL
MIC [4]: 256 µg/mL
QB end point concentration, B alone ([4]; Ex 7, A=DIPB, B=DDAC): 256

CCCCCCCCCCC1C[N+]23CC(C)O[B-]2(OC(C)C3)O1 (stereo not drawn) [DIPB, 3,7-dimethyl-10-decyl-2,8,9-trioxa-5-aza-1-boratricyclo-[3.3.3.0]-undecane]
Mass loss % (Coniophora puteana; retention 0.1% w b.a.e.): 56.25%
Mass loss % (Coniophora puteana; retention 0.2% w b.a.e.): 47.62%
Mass loss % (Coniophora puteana; retention 0.4% w b.a.e): 27.93%
Mass loss % (Coniophora puteana; retention 0.8% w b.a.e): 4.64%
Mass loss % (Tyromyces palustris [1]; retention 0.1% w b.a.e.): 22.55%
Mass loss % (Tyromyces palustris [1]; retention 0.2% w b.a.e.): 26.55%
Mass loss % (Tyromyces palustris [1]; retention 0.4% w b.a.e): 21.33%
Mass loss % (Tyromyces palustris [1]; retention 0.8% w b.a.e): 0.86%
Mass loss % ([2]; retention 0.1% w b.a.e.): 32.95%
Mass loss % ([2]; retention 0.2% w b.a.e.): 34.58%
Mass loss % ([2]; retention 0.4% w b.a.e): 10.09%
Mass loss % ([2]; retention 0.8% w b.a.e): 0.29%
rate of boron leaching ([5]; analysis of the lap joints each year): significantly lower than boric acid
efficacy compared to boric acid ([5]; weather exposed lap joints): superior efficacy
MIC (Antroda xantha; Ex 7): 256 ppm
QA end point concentration, A alone (Antroda xantha; Ex 7, A=DIPB, B=DDAC): 256
QA end point concentration, A alone (Pycnoporus coccineus; Ex 7, A=DIPB, B=DDAC): 256
MIC (Pycnoporus coccineus; [6]): 2048
MIC (Tyromyces palustris [3]; Ex 7): 1024 ppm
QA end point concentration, A alone (Tyromyces palustris [3]; Ex 7, A=DIPB, B=DDAC): 1024
MIC (Trametes versicolor; Ex 7): 256 ppm
QA end point concentration, A alone (Trametes versicolor; Ex 7, A=DIPB, B=DDAC): 2048
MIC ([4]; Ex 7): 2048 ppm
QA end point concentration, A alone ([4]; Ex 7, A=DIPB, B=DDAC): 2048

CC(C)(C)C(=O)C(Oc1ccc(Cl)cc1)n1cncn1 (stereo not drawn) [Triadimefon]
QB end point concentration, B alone (Antroda xantha; [7]): 4
MIC (Antroda xantha; Ex 8, read-out: MIC): 4 µg/mL
QB end point concentration, B alone (Antroda xantha; [8]): 4
QB end point concentration, B alone (Pycnoporus coccineus; [7]): 128
QB end point concentration, B alone (Pycnoporus coccineus; [8]): 0.5
MIC (Pycnoporus coccineus; Trametes coccinea, Ex 8, read-out: MIC): 4 µg/mL
QB end point concentration, B alone (Tyromyces palustris [3]; [7]): 32
MIC (Tyromyces palustris [3]; Ex 8, read-out: MIC): 32 µg/mL
QB end point concentration, B alone (Tyromyces palustris [3]; [8]): 16
QB end point concentration, B alone (Trametes versicolor; [7]): 4
QB end point concentration, B alone (Trametes versicolor; [8]): 4
MIC (Trametes versicolor; Trametes versicolor, Ex 8, read-out: MIC): 128 µg/mL
QB end point concentration, B alone [4, 7]: 4
MIC ([4]; Ex 8, read-out: MIC): 4 µg/mL
QB end point concentration, B alone [4, 8]: 8

alkyldimethyl benzyl ammonium chloride [Benzalkonium Chloride 50%]
Mass loss % (Coniophora puteana; retention ADBAC 0.16% w): 60.59%
Mass loss % (Coniophora puteana; retention ADBAC 0.33% w): 48.9%
Mass loss % (Coniophora puteana; retention ADBAC 0.66% w): 39.16%
Mass loss % (Coniophora puteana; retention ADBAC 1.33% w): 17.72%
Mass loss % (Tyromyces palustris [1]; retention ADBAC 0.16% w): 21.68%
Mass loss % (Tyromyces palustris [1]; retention ADBAC 0.33% w): 25.03%
Mass loss % (Tyromyces palustris [1]; retention ADBAC 0.66% w): 23.72%
Mass loss % (Tyromyces palustris [1]; retention ADBAC 1.33% w): 12.61%
Mass loss % ([2]; retention ADBAC 0.16% w): 30.66%
Mass loss % ([2]; retention ADBAC 0.33% w): 29.44%
Mass loss % ([2]; retention ADBAC 0.66% w): 27.92%
Mass loss % ([2]; retention ADBAC 1.33% w): 4.27%
